ChEMBL document CHEMBL6109138 (J Med Chem, 2025)
≈ marks a conversion by molar mass, not a printed value.

Tests used:
[1] = biological target: T1, D(4) dopamine receptor (Homo sapiens) (UniProt P21917); experiment: Partial agonist activity at D4 receptor (unknown origin) assessed as bias factor by beta-arrestin recruitment assay versus Gi activation assay; format: functional; conditions: filed as partial agonist
T1 sequence (whole entry): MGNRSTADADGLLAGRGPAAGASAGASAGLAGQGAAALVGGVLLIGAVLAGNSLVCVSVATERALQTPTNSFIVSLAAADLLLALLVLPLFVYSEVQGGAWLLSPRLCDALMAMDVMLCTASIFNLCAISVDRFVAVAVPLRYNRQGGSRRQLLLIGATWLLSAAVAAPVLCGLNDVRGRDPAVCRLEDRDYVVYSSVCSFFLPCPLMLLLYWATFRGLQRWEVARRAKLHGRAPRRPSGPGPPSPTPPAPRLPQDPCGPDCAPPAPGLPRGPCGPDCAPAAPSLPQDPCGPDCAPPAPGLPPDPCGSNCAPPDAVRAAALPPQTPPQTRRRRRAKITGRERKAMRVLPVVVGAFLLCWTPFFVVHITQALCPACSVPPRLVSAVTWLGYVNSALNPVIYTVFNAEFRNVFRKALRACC

[2] = biological target: D(2) dopamine receptor (Homo sapiens, UniProt P14416); experiment: Displacement of [3H]N-methylspiperone from human D2L receptor extracted from HEK293 cell membrane assessed as inhibition constant incubated for 1 hrs by radioligand competitive binding based scintillation counter analysis; format: cell membranes
[3] = Apparent passive permeability across apical to basolateral side in MDCKII-MDR1 cells; format: ADME, cell-based, Canis lupus familiaris; conditions: dog, MDCK-MDR1
[4] = system: T98G; experiment: Antitumor activity against human T98G cells assessed as lethal concentration incubated for 48 hrs by SRB assay; format: functional
[5] = Kinetic solubility of compound pH 7.4; format: physicochemical; conditions: buffer, read-out: Kinetic_solubility
[6] = system: T98G; experiment: Antitumor activity against human T98G cells assessed as total growth inhibition incubated for 48 hrs by SRB assay; format: functional
[7] = system: U-87 MG; experiment: Growth inhibition of human U-87 MG cells incubated for 48 hrs by SRB assay; format: functional, U-87MG ATCC
[8] = system: U-87 MG; experiment: Antitumor activity against human U-87 MG cells assessed as total growth inhibition incubated for 48 hrs by SRB assay; format: functional, U-87MG ATCC
[9] = Metabolic stability in human liver microsomes assessed as intrinsic clearance measured per mg protein; format: ADME, Microsome; conditions: read-out: CLH
[10] = system: U-87 MG; experiment: Antitumor activity against human U-87 MG cells assessed as lethal concentration incubated for 48 hrs by SRB assay; format: functional, U-87MG ATCC
[11] = Metabolic stability in human liver microsomes assessed as half-life; format: ADME, Microsome
[12] = system: T98G; experiment: Growth inhibition of human T98G cells incubated for 48 hrs by SRB assay; format: functional
[13] = Metabolic stability in mouse liver microsomes assessed as intrinsic clearance measured per mg protein; format: ADME, Microsome; conditions: read-out: CLH
[14] = system: U-251; experiment: Antitumor activity against human U-251MG cells assessed as total growth inhibition incubated for 48 hrs by SRB assay; format: functional
[15] = system: U-251; experiment: Antitumor activity against human U-251MG cells assessed as lethal concentration incubated for 48 hrs by SRB assay; format: functional; conditions: read-out: LC50 (the source's name)
[16] = Metabolic stability in mouse liver microsomes assessed as intrinsic clearance measured per gram liver; format: ADME, Microsome
[17] = Protein binding in mouse plasma assessed as unbound fraction at 0.5 uM; format: ADME, cell-free
[18] = system: U-251; experiment: Growth inhibition of human U-251MG cells incubated for 48 hrs by SRB assay; format: functional
[19] = Protein binding in human plasma assessed as unbound fraction at 0.5 uM; format: ADME, cell-free
[20] = Metabolic stability in human liver microsomes assessed as intrinsic clearance measured per gram liver; format: ADME, Microsome
[21] = Metabolic stability in mouse liver microsomes assessed as half-life; format: ADME, Microsome
[22] = Apparent passive permeability across basolateral to apical side in MDCKII-MDR1 cells; format: ADME, cell-based, Canis lupus familiaris; conditions: dog, MDCK-MDR1
[23] = biological target: T1, D(4) dopamine receptor (Homo sapiens); experiment: Partial agonist activity at D4 receptor (unknown origin) assessed as bias factor by Gi activation assay versus beta-arrestin recruitment assay; format: functional; conditions: filed as partial agonist

Chain of D(2) dopamine receptor (P14416 whole entry): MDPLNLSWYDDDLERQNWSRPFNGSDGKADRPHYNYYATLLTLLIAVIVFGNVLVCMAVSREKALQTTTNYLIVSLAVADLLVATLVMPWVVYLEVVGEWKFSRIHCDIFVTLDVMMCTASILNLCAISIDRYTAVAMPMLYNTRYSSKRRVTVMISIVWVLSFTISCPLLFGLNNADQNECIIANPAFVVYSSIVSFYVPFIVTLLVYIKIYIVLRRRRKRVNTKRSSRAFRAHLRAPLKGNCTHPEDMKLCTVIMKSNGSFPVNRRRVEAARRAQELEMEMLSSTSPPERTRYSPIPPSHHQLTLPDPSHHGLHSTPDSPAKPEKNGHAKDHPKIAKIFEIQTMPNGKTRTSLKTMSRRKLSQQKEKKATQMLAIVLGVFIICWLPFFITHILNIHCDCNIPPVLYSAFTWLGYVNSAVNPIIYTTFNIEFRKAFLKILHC

Compound | Ki [2] | TGI [6] | GI50 [7] | TGI [8] | GI50 [12] | TGI [14] | CC50 [15] | GI50 [18] | other results
Cc1ccc2nc(CNCCCOc3ccccc3)cc(O)c2c1 |  |  |  |  |  |  |  |  | Activity [1]: 7.4
O=C1CCc2ccccc2N1CCCN1CCN(c2ccc(F)cc2)CC1 | 4.07 µM |  |  |  |  |  |  |  | 
O=C1CCc2ccccc2N1CCCN1CCN(c2ccc3ccccc3c2)CC1 | 6.17 µM | 42.1 µM | 25.7 µM | 55.2 µM | 20 µM | 63.2 µM | 201 µM | 26.5 µM | Papp A→B [3]: 1.77 ×10⁻⁶ cm/s; LC50 (lethal concentration 50%) [4]: 96.7 µM; solubility kinetic [5]: 163 µM (≈ 65.1 µg/mL); microsomal CLint [9]: 73.8 µL/min/mg; LC50 [10]: 118 µM; half-life [11]: 18.8 min; microsomal CLint [13]: 202 µL/min/mg; scaled CLint [16]: 9.09 mL/min/g; fraction unbound at 0.5 µM [17]: 0.71; fraction unbound at 0.5 µM [19]: 0.41; scaled CLint [20]: 2.95 mL/min/g; half-life [21]: 6.86 min; Papp B→A [22]: 2.06 ×10⁻⁶ cm/s
O=C1CCc2ccccc2N1CCCN1CCN(c2ccccc2-c2ccccc2)CC1 | 0.0759 µM |  |  |  |  |  |  |  | 
Cn1nnc2c(C(N)=O)ncn2c1=O [TEMOZOLOMIDE] |  | > 200 µM | > 200 µM | > 200 µM | > 200 µM | > 200 µM | > 200 µM | > 200 µM | 
O=C1CCc2ccccc2N1CCCN1CCN(c2cccc3ccccc23)CC1 | 0.0288 µM | 32.1 µM | 19.5 µM | 39.5 µM | 12.2 µM | 36.6 µM | 78.7 µM | 22.6 µM | Papp A→B [3]: 1.84 ×10⁻⁶ cm/s; LC50 (lethal concentration 50%) [4]: 71 µM; solubility kinetic [5]: 112 µM (≈ 44.7 µg/mL); microsomal CLint [9]: 145 µL/min/mg; LC50 [10]: 80 µM; half-life [11]: 9.58 min; microsomal CLint [13]: 288 µL/min/mg; scaled CLint [16]: 13 mL/min/g; fraction unbound at 0.5 µM [17]: 0.48; fraction unbound at 0.5 µM [19]: 0.23; scaled CLint [20]: 5.78 mL/min/g; half-life [21]: 4.81 min; Papp B→A [22]: 3.47 ×10⁻⁶ cm/s
O=C1CCc2ccccc2N1CCCN1CCN(c2ccc(Cl)cc2)CC1 |  | 66.1 µM | 42.6 µM | 102 µM | 21.9 µM | 104 µM | 182 µM | 61.6 µM | LC50 (lethal concentration 50%) [4]: 200 µM; LC50 [10]: 245 µM
CC(C)N1C[C@H](NC(=O)N2Cc3ccccc3[C@@H]2C)[C@@H](C)C1 |  |  |  |  |  |  |  |  | Activity [23]: 17
O=C1CCc2ccccc2N1CCCN1CCN(c2ccc(Br)cc2)CC1 | 3.16 µM |  |  |  |  |  |  |  | 
O=C1CCc2ccccc2N1CCCN1CCN(c2ccc(I)cc2)CC1 | 3.24 µM |  |  |  |  |  |  |  | 

Continued, in another order:

Ki [2] | Compound | TGI [6] | GI50 [7] | TGI [8] | GI50 [12] | TGI [14] | CC50 [15] | GI50 [18] | other results
46.8 µM | COC(=O)c1ccc(N2CCN(CCCN3C(=O)CCc4ccccc43)CC2)cc1 |  |  |  |  |  |  |  | 
25.1 µM | O=C1CCc2ccccc2N1CCCN1CCN(C2CCCCC2)CC1 |  |  |  |  |  |  |  | 
29.5 µM | O=C1CCc2ccccc2N1CCCN1CCN(c2ccc(C(F)(F)F)cc2)CC1 |  |  |  |  |  |  |  | 
